Laboratory results taken from ChEMBL document CHEMBL1201862, “PubChem BioAssay data set” (2004).
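Dose response: 5 concentrations. Exposure: 48 h. Format: 96-well plates. Endpoint: linear interpolation; highest concentration if not reached. At the GI50, growth is halved.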 Activity calls are given as the source filed them. Rule as the data show it: active = GI50 up to about 1.1 µM and inactive = higher.

Assays:
Experiment in all cases: NCI anticancer screen, dose series, 48 h
786-0 = tested on: 786-0
HT-29 = tested on: HT-29
K562 = tested on: K562
A498 = tested on: A498
DU-145 = tested on: DU-145
SN12C = tested on: SN12C
SNB-75 = tested on: SNB-75
CAKI-1 = tested on: CAKI-1
SK-OV-3 = tested on: SK-OV-3
HCC 2998 = tested on: HCC 2998
BT-549 = tested on: BT-549
MDA-MB-231 = tested on: MDA-MB-231
Hs-578T = tested on: Hs-578T
HCT-116 = tested on: HCT-116
OVCAR-5 = tested on: OVCAR-5
U-251 = tested on: U-251
LOX IMVI = tested on: LOX IMVI
MOLT-4 = tested on: MOLT-4
SNB-19 = tested on: SNB-19
OVCAR-4 = tested on: OVCAR-4
NCI/ADR-RES = tested on: NCI/ADR-RES
PC-3 = tested on: PC-3
MDA-MB-435 = tested on: MDA-MB-435
RPMI-8226 = tested on: RPMI-8226
ACHN = tested on: ACHN
HL-60 = tested on: HL-60
OVCAR-8 = tested on: OVCAR-8
SK-MEL-5 = tested on: SK-MEL-5
Malme-3M = tested on: Malme-3M
UACC-257 = tested on: UACC-257
T47D = tested on: T47D
KM12 = tested on: KM12
SR = tested on: SR
IGROV-1 = tested on: IGROV-1
NCI-H226 = tested on: NCI-H226
MDA-N = tested on: MDA-N
SF-268 = tested on: SF-268
MCF7 = tested on: MCF7
HCT-15 = tested on: HCT-15
SK-MEL-2 = tested on: SK-MEL-2
NCI-H522 = tested on: NCI-H522
SK-MEL-28 = tested on: SK-MEL-28
CCRF-CEM = tested on: CCRF-CEM
SF-539 = tested on: SF-539
RXF 393 = tested on: RXF 393
HOP-92 = tested on: HOP-92
UACC-62 = tested on: UACC-62
COLO 205 = tested on: COLO 205
TK-10 = tested on: TK-10
UO-31 = tested on: UO-31
SW-620 = tested on: SW-620
SF-295 = tested on: SF-295
HOP-62 = tested on: HOP-62
A549 = tested on: A549
OVCAR-3 = tested on: OVCAR-3
NCI-H460 = tested on: NCI-H460
NCI-H23 = tested on: NCI-H23
EKVX = tested on: EKVX
M14 = tested on: M14

## O=C1NC2c3c(I)sc(I)c3C(=O)C2O1 (configuration not stated)
786-0
  GI50: 7.13 µM (inactive)
HT-29
  GI50: 1.7 µM (inactive)
K562
  GI50: 4.65 µM (inactive)
A498
  GI50: 14.3 µM (inactive)
DU-145
  GI50: 14 µM (inactive)
SN12C
  GI50: 4.27 µM (inactive)
SNB-75
  GI50: 13.1 µM (inactive)
CAKI-1
  GI50: 3.52 µM (inactive)
SK-OV-3
  GI50: 17.3 µM (inactive)
HCC 2998
  GI50: 3.95 µM (inactive)
BT-549
  GI50: 5.53 µM (inactive)
MDA-MB-231
  GI50: 4.49 µM (inactive)
Hs-578T
  GI50: 13.5 µM (inactive)
HCT-116
  GI50: 2.58 µM (inactive)
OVCAR-5
  GI50: 14.3 µM (inactive)
U-251
  GI50: 6.78 µM (inactive)
LOX IMVI
  GI50: 2.16 µM (inactive)
MOLT-4
  GI50: 3.58 µM (inactive)
SNB-19
  GI50: 13.2 µM (inactive)
OVCAR-4
  GI50: 9.35 µM (inactive)
NCI/ADR-RES
  GI50: 6.84 µM (inactive)
PC-3
  GI50: 6.9 µM (inactive)
MDA-MB-435
  GI50: 4.45 µM (inactive)
RPMI-8226
  GI50: 8.15 µM (inactive)
ACHN
  GI50: 3.05 µM (inactive)
HL-60
  GI50: 1.09 µM (active)
OVCAR-8
  GI50: 2.84 µM (inactive)
SK-MEL-5
  GI50: 2.46 µM (inactive)
Malme-3M
  GI50: 2.23 µM (inactive)
UACC-257
  GI50: 4.97 µM (inactive)
T47D
  GI50: 15.9 µM (inactive)
KM12
  GI50: 11.6 µM (inactive)
SR
  GI50: 2.96 µM (inactive)
IGROV-1
  GI50: 2.93 µM (inactive)
NCI-H226
  GI50: 5.55 µM (inactive)
MDA-N
  GI50: 2.96 µM (inactive)
SF-268
  GI50: 6.76 µM (inactive)
MCF7
  GI50: 4.58 µM (inactive)
HCT-15
  GI50: 2.08 µM
SK-MEL-2
  GI50: 10.4 µM (inactive)
NCI-H522
  GI50: 1.56 µM (inactive)
SK-MEL-28
  GI50: 7.41 µM (inactive)
CCRF-CEM
  GI50: 1.56 µM (inactive)
SF-539
  GI50: 2.56 µM (inactive)
RXF 393
  GI50: 5.56 µM (inactive)
HOP-92
  GI50: 3.38 µM (inactive)
UACC-62
  GI50: 8.99 µM (inactive)
COLO 205
  GI50: 2.67 µM (inactive)
TK-10
  GI50: 10.9 µM (inactive)
UO-31
  GI50: 3.82 µM (inactive)
SW-620
  GI50: 2.82 µM (inactive)
SF-295
  GI50: 15.8 µM (inactive)
HOP-62
  GI50: 14.1 µM (inactive)
A549
  GI50: 14.1 µM (inactive)
OVCAR-3
  GI50: 3.31 µM (inactive)
NCI-H460
  GI50: 13.9 µM (inactive)
NCI-H23
  GI50: 5.27 µM (inactive)
EKVX
  GI50: 5.52 µM (inactive)
M14
  GI50: 2.07 µM (inactive)

## NCCCCC(N)C(=O)NCCNc1ccc(NCCNC(=O)C(N)CCCCN)c2c1C(=O)c1ccccc1C2=O (configuration not stated)
786-0
  GI50: 7.41 µM (inactive)
HT-29
  GI50: 50.7 µM (inactive)
K562
  GI50: > 33.4 µM (inactive)
A498
  GI50: 46.5 µM (inactive)
DU-145
  GI50: > 100 µM (inactive)
SN12C
  GI50: 4.11 µM (inactive)
SNB-75
  GI50: 43.2 µM (inactive)
CAKI-1
  GI50: > 84.7 µM (inactive)
SK-OV-3
  GI50: 34.4 µM (inactive)
HCC 2998
  GI50: 16.4 µM (inactive)
BT-549
  GI50: 6.78 µM (inactive)
MDA-MB-231
  GI50: 34 µM (inactive)
Hs-578T
  GI50: 8.38 µM (inactive)
HCT-116
  GI50: 17.3 µM (inactive)
OVCAR-5
  GI50: > 74.3 µM (inactive)
U-251
  GI50: 35 µM (inactive)
LOX IMVI
  GI50: 9.35 µM (inactive)
MOLT-4
  GI50: 4.39 µM (inactive)
SNB-19
  GI50: > 36.9 µM (inactive)
OVCAR-4
  GI50: > 100 µM (inactive)
NCI/ADR-RES
  GI50: 28.2 µM (inactive)
PC-3
  GI50: 81.1 µM (inactive)
MDA-MB-435
  GI50: 98.6 µM (inactive)
RPMI-8226
  GI50: 31.8 µM (inactive)
ACHN
  GI50: 35.6 µM (inactive)
HL-60
  GI50: > 95.5 µM (inactive)
OVCAR-8
  GI50: 5.9 µM (inactive)
SK-MEL-5
  GI50: > 100 µM (inactive)
Malme-3M
  GI50: > 100 µM (inactive)
UACC-257
  GI50: > 100 µM (inactive)
T47D
  GI50: > 100 µM (inactive)
KM12
  GI50: > 81.3 µM (inactive)
SR
  GI50: 4.91 µM (inactive)
IGROV-1
  GI50: > 100 µM (inactive)
NCI-H226
  GI50: > 21.7 µM (inactive)
MDA-N
  GI50: > 100 µM (inactive)
SF-268
  GI50: > 100 µM (inactive)
MCF7
  GI50: > 100 µM (inactive)
HCT-15
  GI50: > 83.8 µM
SK-MEL-2
  GI50: > 100 µM (inactive)
NCI-H522
  GI50: 3.56 µM (inactive)
SK-MEL-28
  GI50: > 100 µM (inactive)
CCRF-CEM
  GI50: 31.9 µM (inactive)
SF-539
  GI50: 7.62 µM (inactive)
RXF 393
  GI50: 9.86 µM (inactive)
HOP-92
  GI50: 5.27 µM (inactive)
UACC-62
  GI50: > 100 µM (inactive)
COLO 205
  GI50: > 59.8 µM (inactive)
TK-10
  GI50: > 94.4 µM (inactive)
UO-31
  GI50: 32.3 µM (inactive)
SW-620
  GI50: 71.8 µM (inactive)
SF-295
  GI50: > 100 µM (inactive)
HOP-62
  GI50: 9.46 µM (inactive)
A549
  GI50: 63 µM (inactive)
OVCAR-3
  GI50: > 100 µM (inactive)
NCI-H460
  GI50: 9.06 µM (inactive)
NCI-H23
  GI50: > 65.8 µM (inactive)
EKVX
  GI50: > 100 µM (inactive)
M14
  GI50: > 100 µM (inactive)

## O=C(CNc1ccc([N+](=O)[O-])cc1)Nn1c(-c2ccccc2)nc2ccccc2c1=O
786-0
  GI50: 2.4 µM (inactive)
HT-29
  GI50: 3.06 µM (inactive)
K562
  GI50: 1.91 µM (inactive)
A498
  GI50: 7.01 µM (inactive)
DU-145
  GI50: 8.91 µM (inactive)
SN12C
  GI50: 2.2 µM (inactive)
SNB-75
  GI50: 3.73 µM (inactive)
CAKI-1
  GI50: 2.24 µM (inactive)
SK-OV-3
  GI50: 3.97 µM (inactive)
HCC 2998
  GI50: 9.02 µM (inactive)
BT-549
  GI50: 1.82 µM (inactive)
MDA-MB-231
  GI50: 3.52 µM (inactive)
Hs-578T
  GI50: 2.73 µM (inactive)
HCT-116
  GI50: 3.03 µM (inactive)
OVCAR-5
  GI50: 5.73 µM (inactive)
U-251
  GI50: 1.95 µM (inactive)
LOX IMVI
  GI50: 0.841 µM (active)
MOLT-4
  GI50: 1.89 µM (inactive)
SNB-19
  GI50: 8.75 µM (inactive)
OVCAR-4
  GI50: 2.79 µM (inactive)
NCI/ADR-RES
  GI50: 2.33 µM (inactive)
PC-3
  GI50: 3.07 µM (inactive)
MDA-MB-435
  GI50: 3.96 µM (inactive)
RPMI-8226
  GI50: 2.47 µM (inactive)
ACHN
  GI50: 3.95 µM (inactive)
HL-60
  GI50: 2.26 µM (inactive)
OVCAR-8
  GI50: 4.24 µM (inactive)
SK-MEL-5
  GI50: 1.04 µM (active)
Malme-3M
  GI50: 2.03 µM (inactive)
UACC-257
  GI50: 7.78 µM (inactive)
T47D
  GI50: 3.11 µM (inactive)
KM12
  GI50: 4.56 µM (inactive)
SR
  GI50: 3.1 µM (inactive)
IGROV-1
  GI50: 3.64 µM (inactive)
NCI-H226
  GI50: 4.69 µM (inactive)
MDA-N
  GI50: 3.49 µM (inactive)
SF-268
  GI50: 4.23 µM (inactive)
MCF7
  GI50: 2.52 µM (inactive)
HCT-15
  GI50: 2.93 µM
SK-MEL-2
  GI50: 2.15 µM (inactive)
NCI-H522
  GI50: 1.72 µM (inactive)
SK-MEL-28
  GI50: 3.25 µM (inactive)
CCRF-CEM
  GI50: 0.811 µM (active)
SF-539
  GI50: 2.85 µM (inactive)
RXF 393
  GI50: 2.82 µM (inactive)
HOP-92
  GI50: 0.377 µM (active)
UACC-62
  GI50: 1.32 µM (inactive)
COLO 205
  GI50: 2.28 µM (inactive)
TK-10
  GI50: 6.15 µM (inactive)
UO-31
  GI50: 4.32 µM (inactive)
SW-620
  GI50: 2.39 µM (inactive)
SF-295
  GI50: 14.5 µM (inactive)
HOP-62
  GI50: 11.2 µM (inactive)
A549
  GI50: 8.77 µM (inactive)
OVCAR-3
  GI50: 6.93 µM (inactive)
NCI-H460
  GI50: 3.81 µM (inactive)
NCI-H23
  GI50: 2.43 µM (inactive)
EKVX
  GI50: 13.4 µM (inactive)
M14
  GI50: 3.03 µM (inactive)
